Data from US20220267310A1, “QUINAZOLINE AND CINNOLINE DERIVATIVES AS DNA-PK INHIBITOR” (MEDSHINE DISCOVERY INC., priority 2019, published 2022).
Several values for one entry are separate records, joined by “and”; a condition that tells them apart may be missing. Equal values may be shown once.

How the values were obtained:
PI3K (p110α/p85α) = target: T1, PI3K (p110α/p85α) (Homo sapiens, UniProt P42336); test: PI3K (p110α/p85α) kinase inhibitory activity (HTRF); type: biochemical
T1 construct: Eurofins Pharma Discovery Service (contract assay)
Method: (§1) This experiment was tested at Eurofins Pharma Discovery Service, Reaction Biology Corp. (RBC)
(§2) […] DNA-PK: Mg/ATP; GST-cMyc-p53; EDTA; Ser15 antibody; ATP: 10 μM; biotinylated phosphatidylinositol-3,4,5-triphosphate; GST label GRP1 PH domain; streptavidin and phycocyanin; europium-labelled monoclonal antibody against GST.
PI3K (p110α/p85α) was incubated in a determination buffer containing phosphatidylinositol 4,5-diphosphate and Mg/ATP (density as required). The reaction was initiated by adding an ATP solution. After incubating at room temperature for 30 min, a termination solution containing EDTA and biotinylated phosphatidylinositol-3,4,5-triphosphate was added to terminate the reaction. Finally, a detection buffer (containing labeled anti-GST monoclonal antibody, PH domain of GRP1 with GST label and streptavidin and phycyanin and […]) was added. Then, the board was read in time-resolved fluorescence mode, and an HTRF signal was measured according to the formula HTRF=10000×(Em665 nm/Em620 nm).

[1] = system: human small cell lung cancer NCI-H69 cell subcutaneous xenograft tumor; test: NCI-H69 subcutaneous xenograft, combination with etoposide, 22-day experiment (Table 7); type: in vivo, BALB/c nude mice
Method: Experiment example 3: in vivo pharmacodynamics of human small cell lung cancer NCI-H69 cell subcutaneous xenograft tumor BALB/c nude mouse model:
Experimental animals: Female BALB/c nude mice, 6-8 weeks old, weighing 15-22 grams; supplier: Shanghai Linchang Biotechnology Co., LTD. (Linchang, Shanghai)
Human small cell lung cancer NCI-H69 cells (ATCC, item number: HTB-119 and ECACC-95111733) were cultured in vitro in a culture condition of RPMI-1640 medium with 10% fetal bovine serum, 100 U/mL penicillin and 100 μg/mL streptomycin, incubated at 37° C. and 5% CO2. Conventional passage was carried out twice a week. When cell saturation was 80%-90% and the number reaches the requirement, cells were collected, counted and inoculated.
0.2 mL (10×10^6) NCI-H69 cells (with matrix glue, and volume ratio of 1:1) were subcutaneously inoculated into a right back of each mouse, and group administration was initiated when the average tumor volume reaches about 110-120 mm^3.
The tested compound was prepared as a 5 mg/mL clarified solution with 10% DMSO+50% polyethylene glycol 400+40% water as the solvent.
The experimental indicators refers to study whether tumor growth was inhibited, delayed, or cured. Tumor diameter was measured twice a week with a vernier caliper. The calculation formula of the tumor volume was V=0.5a×b^2, and a and b represent the long diameter and short diameter of the tumor, respectively.
The antitumor efficacy of the compound was evaluated by TGI (%) or relative tumor proliferation rate T/C (%). TGI (%) reflects the tumor growth inhibition rate. The calculation of TGI (%): TGI (%)=[1−(average tumor volume at the end of administration of a certain treatment group−average tumor volume at the beginning of administration of the treatment group)/(average tumor volume at the end of treatment in solvent control group−average tumor volume at the beginning of treatment in solvent control group)]×control group.
Relative tumor proliferation rate T/C (%): the calculation formula was as follows: T/C %=[…] TRTV/CRTV group (TRTV: treatment group RTV; CRTV: negative control group RTV). According to results of tumor measurement, Relative Tumor Volume (RTV) was calculated by the formula RTV=Vt/V0, where V0 was the average tumor volume measured in group administration (i.e., d0), and Vt was the average tumor volume measured in a certain single measurement. TRTV and CRTV collect data on the same day.
Statistic analysis includes an average value and a standard error (SEM) of tumor volume at each time point for each group. […] If there was no significant difference in F value, Dunnet (2-sided) method was applied to analysis. All data were analyzed using SPSS 17.0. P<0.05 was considered as having a significant difference.

[2] = Pharmacokinetic evaluation in mice, IV and PO; type: in vivo, Balb/c female mice
Method: The tested compound was mixed with 10% DMSO/50% PEG400/40% water, vortexized and ultrasonic to prepare 0.2 mg/mL or 0.4 mg/ml, approximately clarified solution, which was filtered by a microporous membrane and then standby. Balb/c female mice of 18-20 g were selected and given the candidate compound solution intravenously at a dose of 1 or 2 mg/kg. The tested compound was mixed with 10% DMSO/50% PEG400/40% water, vortexized and ultrasonic to prepare 0.2 mg/mL or 1 mg/mL approximately clarified solution, which was filtered by a microporous membrane and then standby. Balb/c female mice of 18 to 20 g were selected and given orally the candidate compound solution at a dose of 2 or 10 mg/kg. Whole blood was collected for a certain period of time, and plasma was prepared. Drug concentration was analyzed by LC-MS/MS method, and pharmacokinetic parameters were calculated by Phoenix WinNonlin software (US Pharsight company).
C0: instantaneous concentration required after intravenous injection; Cmax: the highest blood concentration after administration; Tmax: time required to reach peak concentration after administration; T1/2: the time required for blood drug concentration to decrease by half; Vdss: apparent volume of distribution, which refers to the ratio constant of drug dosage to blood concentration when a drug reaches dynamic equilibrium in vivo. Cl: clearance rate, referring to drug apparent distribution volume number removed from the body per unit time; Tlast: time of last detection point: AUC0-last: an area under a drug duration curve, referring to an area surrounded by the blood drug concentration curve on the time axis; Bioavailability: a measure of the rate and extent of drug absorption into the blood circulation, which was an important index to evaluate drug absorption degree.

PI3K (p110σ/p85α) = target: T2, PI3K (p110σ/p85α) (Homo sapiens, UniProt O00329); test: PI3K (p110σ/p85α) kinase inhibitory activity (HTRF); type: biochemical
T2 construct: Eurofins Pharma Discovery Service (contract assay)

DNA-PK (h) = target: T3, DNA-PK (h) (Homo sapiens, UniProt P78527); test: DNA-PK kinase inhibitory activity (HTRF, Eurofins); type: biochemical; details: ATP: 10 μM
T3 construct: Eurofins Pharma Discovery Service (contract assay)
Method: as §1, §2
DNA-PK (h) was incubated in a determination buffer containing 50 nM GST-cMyc-p53 and Mg/ATP (density as required). The reaction was initiated by adding a mixture of Mg/ATP. After incubating at room temperature for 30 min, a termination solution containing EDTA was added to terminate the reaction. Finally, a detection buffer (containing labeled anti-GST monoclonal antibody and europium-labeled anti-phosphate Ser15 antibody against phosphorylated p53) was added. Then, the board was read in time-resolved fluorescence mode, and a Homogeneous Time Resolved Fluorescence (HTRF) signal was measured according to the formula HTRF=10000×(Em665 nm/Em620 nm).

[3] = 40 mg/kg, PO, QD + etoposide 10 mg/kg, IP, 3-day administration, 4-day withdrawal, 22nd day
[4] = 40 mg/kg, PO, QD + etoposide 10 mg/kg, IP, 3-day administration, 4-day withdrawal, average ± SEM

T1 sequence (P42336 whole entry, species assumed): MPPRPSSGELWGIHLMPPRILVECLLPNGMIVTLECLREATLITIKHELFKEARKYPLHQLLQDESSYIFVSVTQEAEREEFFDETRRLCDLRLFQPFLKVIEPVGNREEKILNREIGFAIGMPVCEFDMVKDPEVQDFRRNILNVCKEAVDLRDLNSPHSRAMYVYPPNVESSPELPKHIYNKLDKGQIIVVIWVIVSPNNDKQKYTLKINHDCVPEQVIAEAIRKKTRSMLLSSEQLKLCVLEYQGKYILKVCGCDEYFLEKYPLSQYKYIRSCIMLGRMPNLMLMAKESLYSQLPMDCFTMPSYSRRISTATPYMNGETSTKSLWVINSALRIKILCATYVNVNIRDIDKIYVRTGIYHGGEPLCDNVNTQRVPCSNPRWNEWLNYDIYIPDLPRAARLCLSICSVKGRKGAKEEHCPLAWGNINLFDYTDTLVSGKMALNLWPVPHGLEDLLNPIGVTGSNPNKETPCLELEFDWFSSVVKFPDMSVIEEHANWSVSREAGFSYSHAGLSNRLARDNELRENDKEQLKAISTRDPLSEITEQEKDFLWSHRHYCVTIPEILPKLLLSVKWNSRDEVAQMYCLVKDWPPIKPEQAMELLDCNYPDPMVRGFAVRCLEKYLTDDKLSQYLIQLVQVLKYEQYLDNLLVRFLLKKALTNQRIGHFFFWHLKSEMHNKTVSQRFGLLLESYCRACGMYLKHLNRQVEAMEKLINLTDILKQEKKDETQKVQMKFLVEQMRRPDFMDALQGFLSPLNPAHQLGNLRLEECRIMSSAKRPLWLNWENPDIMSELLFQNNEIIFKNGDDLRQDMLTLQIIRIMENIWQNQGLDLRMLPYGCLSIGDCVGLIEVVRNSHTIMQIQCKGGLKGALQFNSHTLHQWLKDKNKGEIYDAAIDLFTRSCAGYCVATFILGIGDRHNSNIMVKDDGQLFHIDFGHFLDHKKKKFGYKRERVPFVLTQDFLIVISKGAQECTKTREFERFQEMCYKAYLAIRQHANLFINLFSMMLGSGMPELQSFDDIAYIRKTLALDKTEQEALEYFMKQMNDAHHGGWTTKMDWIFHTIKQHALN
T1 sequence (P27986 whole entry partner, species assumed): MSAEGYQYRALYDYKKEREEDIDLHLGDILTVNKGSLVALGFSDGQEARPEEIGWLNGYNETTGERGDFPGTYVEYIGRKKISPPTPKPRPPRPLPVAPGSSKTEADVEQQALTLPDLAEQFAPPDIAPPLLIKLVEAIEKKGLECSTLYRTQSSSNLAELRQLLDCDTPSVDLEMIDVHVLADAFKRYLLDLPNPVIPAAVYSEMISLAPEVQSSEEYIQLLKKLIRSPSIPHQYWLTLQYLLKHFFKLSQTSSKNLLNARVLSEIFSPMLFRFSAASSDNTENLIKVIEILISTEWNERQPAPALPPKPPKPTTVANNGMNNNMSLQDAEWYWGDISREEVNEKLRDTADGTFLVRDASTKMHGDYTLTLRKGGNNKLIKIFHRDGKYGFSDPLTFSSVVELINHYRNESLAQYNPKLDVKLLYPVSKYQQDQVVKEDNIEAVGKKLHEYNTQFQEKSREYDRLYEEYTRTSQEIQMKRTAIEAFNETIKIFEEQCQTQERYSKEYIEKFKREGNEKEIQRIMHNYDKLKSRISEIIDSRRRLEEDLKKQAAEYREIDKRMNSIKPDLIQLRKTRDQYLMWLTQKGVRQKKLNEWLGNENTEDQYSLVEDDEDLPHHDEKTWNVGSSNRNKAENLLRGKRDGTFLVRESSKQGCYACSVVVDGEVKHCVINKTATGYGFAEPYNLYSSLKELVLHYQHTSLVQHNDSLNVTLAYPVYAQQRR
T2 sequence (O00329 whole entry): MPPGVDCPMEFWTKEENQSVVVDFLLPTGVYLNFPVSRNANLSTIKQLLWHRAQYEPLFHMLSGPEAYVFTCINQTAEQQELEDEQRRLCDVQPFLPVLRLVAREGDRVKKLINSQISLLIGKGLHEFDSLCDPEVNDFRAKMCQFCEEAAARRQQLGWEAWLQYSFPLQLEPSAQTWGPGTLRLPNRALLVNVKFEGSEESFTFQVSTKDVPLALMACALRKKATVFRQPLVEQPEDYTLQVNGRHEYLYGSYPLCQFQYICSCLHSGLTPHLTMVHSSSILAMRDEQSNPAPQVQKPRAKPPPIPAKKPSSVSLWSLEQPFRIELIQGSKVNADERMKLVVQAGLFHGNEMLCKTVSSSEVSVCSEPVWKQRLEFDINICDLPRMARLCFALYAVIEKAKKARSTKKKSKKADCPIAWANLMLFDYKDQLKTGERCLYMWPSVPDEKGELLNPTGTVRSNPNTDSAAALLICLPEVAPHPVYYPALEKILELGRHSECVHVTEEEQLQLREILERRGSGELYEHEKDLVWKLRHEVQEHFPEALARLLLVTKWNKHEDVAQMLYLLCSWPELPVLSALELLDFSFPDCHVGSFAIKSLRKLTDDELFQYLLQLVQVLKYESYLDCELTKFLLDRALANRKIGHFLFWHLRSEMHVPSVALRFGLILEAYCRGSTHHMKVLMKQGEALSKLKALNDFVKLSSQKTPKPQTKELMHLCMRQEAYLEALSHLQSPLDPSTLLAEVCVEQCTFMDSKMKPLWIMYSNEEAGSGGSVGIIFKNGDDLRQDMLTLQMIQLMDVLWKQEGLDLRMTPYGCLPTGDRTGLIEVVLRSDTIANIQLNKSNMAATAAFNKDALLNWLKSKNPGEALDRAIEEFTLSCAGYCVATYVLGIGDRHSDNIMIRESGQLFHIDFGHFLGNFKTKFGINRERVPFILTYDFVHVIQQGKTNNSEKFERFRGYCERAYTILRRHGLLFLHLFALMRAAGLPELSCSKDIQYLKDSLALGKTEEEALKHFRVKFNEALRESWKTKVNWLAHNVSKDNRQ
T2 sequence (P27986 whole entry partner): as the sequence (P27986 whole entry partner, species assumed) above

## COc1ccc(C(O)c2cc(-c3ccnc4cc(N5CCOCC5)ccc34)c(F)cc2Cl)nn1 (single isomer, unassigned) [Embodiment 2]
PI3K (p110α/p85α)
  IC50: 39 nM
[1]; 40 mg/kg group (+ etoposide 10 mg/kg, IP)
  Weight changes: −16.66%
[1]; 40 mg/kg, PO, QD + etoposide 10 mg/kg, IP, 3-day administration, 4-day withdrawal
  RTV (22th day): 1.84
[1]; [3]
  T/C (%): 21.37%
  TGI (%): 89% and 88.96%
[1]; [4]
  Tumor volume (mm^3) (0th day): 119 ± 13 mm^3
  Tumor volume (mm^3) (22th day): 219 ± 44 mm^3
[2]; IV(2 mg/kg), mouse plasma
  AUC0-last: 3.354 µM·h
  C0: 1810 nM
  Cl: 20.3 mL/min/kg
  T1/2: 1.33 h
  Tlast: 8.00 h
  Vdss: 2.25 L/kg
[2]; PO(10 mg/kg), mouse
  Bioavailability (%): 60.8%
[2]; PO(10 mg/kg), mouse plasma
  AUC0-last: 9.073 µM·h
  Cmax: 2520 nM
  T1/2: 2.47 h
  Tlast: 8.00 h
  Tmax: 1.00 h
PI3K (p110σ/p85α)
  IC50: 13 nM
DNA-PK (h)
  IC50: 0.5 nM
